Reference: patent US12568972B2, “Pyridazinol compounds and derivatives, preparation methods, herbicidal compositions and applications thereof” (Qingdao Kingagroot Chemical Compound Co., Ltd., priority 2018, dated 2026)

Experiments:
Assay in all cases: Post-emergence test, weed control effect
Type in all cases: in vivo
Details in all cases: after 3 weeks
[1] = tested on: Amaranthus retroflexus
Summary of the method: (§1)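 Weeds grown from seed in soil-filled pots in a greenhouse were sprayed at the 2-3 leaf stage, 2-3 weeks after sowing, with compound in acetone/Tween-80/water plus 80% vegetable oil methyl ester synergist at 1500 g/ha. Fresh-weight inhibition was scored on a 0-10 scale after 3 weeks.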

[2] = tested on: Chenopodiaceae
Summary of the method: as §1

[3] = tested on: Rorippa indica
Summary of the method: as §1

[4] = tested on: Veronica polita
Summary of the method: as §1

Oc1cc(C(F)(F)F)nnc1-c1cc(Cl)cnc1F [Compound 998]
10: weed control effect (activity level), Amaranthus retroflexus ([1]; Dose 3000 g/ha) | weed control effect (activity level), Chenopodiaceae ([2]; Dose 3000 g/ha) | weed control effect (activity level), Rorippa indica ([3]; Dose 3000 g/ha) | weed control effect (activity level), Veronica polita ([4]; Dose 3000 g/ha)

Oc1cc(C(F)(F)F)nnc1-c1ccncc1Cl [Compound 279]
10: weed control effect (activity level), Amaranthus retroflexus ([1]; dose 2000 g/ha) | weed control effect (activity level), Chenopodiaceae ([2]; dose 2000 g/ha) | weed control effect (activity level), Rorippa indica ([3]; dose 2000 g/ha) | weed control effect (activity level), Veronica polita ([4]; dose 2000 g/ha)

Cn1cc(S(=O)(=O)Oc2cc(C(F)(F)F)nnc2-c2cccc(F)c2)cn1 [Compound 1-151]
10: weed control effect, Amaranthus retroflexus (activity level) ([1]; Dose 3000 g/ha) | weed control effect, Chenopodiaceae (activity level) ([2]; Dose 3000 g/ha) | weed control effect, Rorippa indica (activity level) ([3]; Dose 3000 g/ha) | weed control effect, Veronica polita (activity level) ([4]; Dose 3000 g/ha)

O=C(CCc1ccccc1)Oc1cc(C(F)(F)F)nnc1-c1ccc(F)cc1 [Compound 1-99]
10: weed control effect, Amaranthus retroflexus (activity level) ([1]; Dose 3000 g/ha) | weed control effect, Chenopodiaceae (activity level) ([2]; Dose 3000 g/ha) | weed control effect, Rorippa indica (activity level) ([3]; Dose 3000 g/ha) | weed control effect, Veronica polita (activity level) ([4]; Dose 3000 g/ha)

Oc1cc(C(F)(F)F)nnc1-c1ccc(Cl)c(Cl)c1 [Compound 38]
10: weed control effect (activity level), Amaranthus retroflexus ([1]; dose 1000 g/ha) | weed control effect (activity level), Chenopodiaceae ([2]; dose 1000 g/ha) | weed control effect (activity level), Rorippa indica ([3]; dose 1000 g/ha) | weed control effect (activity level), Veronica polita ([4]; dose 1000 g/ha)

Oc1cc(C(F)(F)F)nnc1-c1ccc(F)cc1Cl [Compound 44]
10: weed control effect (activity level), Amaranthus retroflexus ([1]; dose 1000 g/ha) | weed control effect (activity level), Chenopodiaceae ([2]; dose 1000 g/ha) | weed control effect (activity level), Rorippa indica ([3]; dose 1000 g/ha) | weed control effect (activity level), Veronica polita ([4]; dose 1000 g/ha)

Oc1cc(C(F)(F)F)nnc1-c1ccc2cc(Cl)ccc2c1 [Compound 371]
10: weed control effect (activity level), Amaranthus retroflexus ([1]; dose 2000 g/ha) | weed control effect (activity level), Chenopodiaceae ([2]; dose 2000 g/ha) | weed control effect (activity level), Rorippa indica ([3]; dose 2000 g/ha) | weed control effect (activity level), Veronica polita ([4]; dose 2000 g/ha)

CCCCC(CC)OC(=O)Oc1cc(C(F)(F)F)nnc1-c1ccc(Br)c([N+](=O)[O-])c1 (centres unmarked) [Compound 1-36]
10: weed control effect, Amaranthus retroflexus (activity level) ([1]; Dose 3000 g/ha) | weed control effect, Chenopodiaceae (activity level) ([2]; Dose 3000 g/ha) | weed control effect, Rorippa indica (activity level) ([3]; Dose 3000 g/ha) | weed control effect, Veronica polita (activity level) ([4]; Dose 3000 g/ha)

Oc1cc(C(F)(F)F)nnc1-c1cc(Cl)cc(Cl)c1 [Compound 40]
10: weed control effect (activity level), Amaranthus retroflexus ([1]; dose 1000 g/ha) | weed control effect (activity level), Chenopodiaceae ([2]; dose 1000 g/ha) | weed control effect (activity level), Rorippa indica ([3]; dose 1000 g/ha) | weed control effect (activity level), Veronica polita ([4]; dose 1000 g/ha)

O=S(=O)(Oc1cc(C(F)(F)F)nnc1-c1ccc(Cl)cc1)c1cccc(OC(F)F)c1 [Compound 1-139]
10: weed control effect, Amaranthus retroflexus (activity level) ([1]; Dose 3000 g/ha) | weed control effect, Chenopodiaceae (activity level) ([2]; Dose 3000 g/ha) | weed control effect, Rorippa indica (activity level) ([3]; Dose 3000 g/ha) | weed control effect, Veronica polita (activity level) ([4]; Dose 3000 g/ha)

CN(C)C(=O)Oc1cc(C(F)(F)F)nnc1-c1ccc(F)c(F)c1 [Compound 1-60]
10: weed control effect, Amaranthus retroflexus (activity level) ([1]; Dose 3000 g/ha) | weed control effect, Chenopodiaceae (activity level) ([2]; Dose 3000 g/ha) | weed control effect, Rorippa indica (activity level) ([3]; Dose 3000 g/ha) | weed control effect, Veronica polita (activity level) ([4]; Dose 3000 g/ha)

Oc1cc(C(F)(F)F)nnc1-c1cccnc1I [Compound 969]
10: weed control effect (activity level), Amaranthus retroflexus ([1]; Dose 3000 g/ha) | weed control effect (activity level), Chenopodiaceae ([2]; Dose 3000 g/ha) | weed control effect (activity level), Rorippa indica ([3]; Dose 3000 g/ha) | weed control effect (activity level), Veronica polita ([4]; Dose 3000 g/ha)

O=C(Oc1cc(C(F)(F)F)nnc1-c1ccc(Cl)cc1)c1ccccc1Cl [Compound 1-83]
10: weed control effect, Amaranthus retroflexus (activity level) ([1]; Dose 3000 g/ha) | weed control effect, Chenopodiaceae (activity level) ([2]; Dose 3000 g/ha) | weed control effect, Rorippa indica (activity level) ([3]; Dose 3000 g/ha) | weed control effect, Veronica polita (activity level) ([4]; Dose 3000 g/ha)

O=C(Oc1cc(C(F)(F)F)nnc1-c1ccc(F)cc1)c1cccc2ccsc12 [Compound 1-119]
10: weed control effect, Amaranthus retroflexus (activity level) ([1]; Dose 3000 g/ha) | weed control effect, Chenopodiaceae (activity level) ([2]; Dose 3000 g/ha) | weed control effect, Rorippa indica (activity level) ([3]; Dose 3000 g/ha) | weed control effect, Veronica polita (activity level) ([4]; Dose 3000 g/ha)

O=C(Oc1cc(C(F)(F)F)nnc1-c1ccc(F)c(F)c1)c1cnccn1 [Compound 1-112]
10: weed control effect, Amaranthus retroflexus (activity level) ([1]; Dose 3000 g/ha) | weed control effect, Chenopodiaceae (activity level) ([2]; Dose 3000 g/ha) | weed control effect, Rorippa indica (activity level) ([3]; Dose 3000 g/ha) | weed control effect, Veronica polita (activity level) ([4]; Dose 3000 g/ha)

CCCCCCCCC(=S)Oc1cc(C(F)(F)F)nnc1-c1ccc(F)cc1 [Compound 1-154]
10: weed control effect, Amaranthus retroflexus (activity level) ([1]; Dose 3000 g/ha) | weed control effect, Chenopodiaceae (activity level) ([2]; Dose 3000 g/ha) | weed control effect, Rorippa indica (activity level) ([3]; Dose 3000 g/ha) | weed control effect, Veronica polita (activity level) ([4]; Dose 3000 g/ha)

O=C(Oc1cc(C(F)(F)F)nnc1-c1ccc(C(F)(F)F)cc1)c1cccc2c1OCO2 [Compound 1-118]
10: weed control effect, Amaranthus retroflexus (activity level) ([1]; Dose 3000 g/ha) | weed control effect, Chenopodiaceae (activity level) ([2]; Dose 3000 g/ha) | weed control effect, Rorippa indica (activity level) ([3]; Dose 3000 g/ha) | weed control effect, Veronica polita (activity level) ([4]; Dose 3000 g/ha)
